Assay in all cases: ligand-induced self-cleavage, PAGE, SYBR Gold
Assay [1] concerns II-R1-7 (DNA, aptamer) CATGACCACTAGGAGCATCTTTGGCGATCCTCGTCAGATGGTGAAGCAGACGTTTGGCTAGGGGAATAAATCTTTGGGCACCTAGTGGTCATG
The conditions noted are these: 100 mM NaCl, 40 mM MgCl2, 1 mM ZnCl2; 50 mM HEPES, pH 7.05; apparent, half-maximal cleavage.

The subject of assay [2] is II-R1-3 (DNA, aptamer) CATGACCACTAGGAGCATCTTTGGCGAGAAGACTCTGGATTCGGGGACCAGTTGCTGCTAGGGGAATAAATCTTTGGGCACCTAGTGGTCATG
Conditions: 100 mM NaCl, 40 mM MgCl2, 1 mM ZnCl2, 50 mM HEPES, pH 7.05; for KD: apparent, half-maximal cleavage, 0.1-100 μM ligand; for ligand-induced cleavage: 30 min.

For assay [3], the system named is II-R1-1 (DNA, aptamer) CATGACCACTAGGAGCATCTTTGGCGAGATCGGGAGAATCGGTGGCATTGGTGTCTCCTAGGGGAATAAATCTTTGGGCACCTAGTGGTCATG
Conditions: 100 mM NaCl, 40 mM MgCl2, 1 mM ZnCl2; 50 mM HEPES, pH 7.05; apparent, half-maximal cleavage.

With `N[C@@H](Cc1ccc(O)cc1)C(=O)O`, the KD was determined as 118.9 ± 11.7 µM in assay [1], 6.8 ± 0.7 µM in assay [2] and 71.6 ± 9.8 µM in assay [3].
Turning to `N[C@@H](Cc1ccccc1)C(=O)O`, the KD came to 19.3 ± 2.4 µM in assay [1], 4.8 ± 1.4 µM in assay [2] and 20.3 ± 1.6 µM in assay [3].
`N[C@H](Cc1ccccc1)C(=O)O`: in assay [2] (tested at 100 μM, no cleavage induced), the ligand-induced cleavage result is on record as “no”.
Take `NC(Cc1ccc(F)cc1)C(=O)O` (racemic): the ligand-induced cleavage result in assay [2] (100 μM, fraction cleaved 0.235 (L-Phe 0.325)) is recorded as “yes”.

The values are drawn from publication PMC10287898 (2023).
